Where two headings read alike, the source gives them in different places.
Experiments:
[1] = biological target: T1, EGFR (Homo sapiens, UniProt P00533); assay: EGFR in-cell Western (ICW) screening protocol; type: cell-based; design: unit not given here; details: for ICW Screen: initial screen
T1 construct: endogenous in cells; host or cells: A431 cells (ATCC CRL-1555)
Method: The following example describes general EGFR in-cell Western (ICW) screening protocol.
Two cell plates were prepared for each compound plate.
Serum Starvation: The cells were serum starved prior to compound addition. […] The cell plates were incubated at 37° C./5% CO2 for 2 hours.
Prepared compound plates were stored at RT prior to use and at 4° C. long term.
Compound Dilution Plate Preparation: 250 μl of DMEM supplemented with 1 mg/ml BSA (Sigma A3059-10G) was added to the appropriate wells of a 96 well plate to prepare the compound dilution plates. Using a multichannel pipettor, 1.25 μl of compound from the compound plate was transferred into the compound dilution plate.
Compound Addition: The starve media was removed from the cell plates by aspiration. Using a multichannel pipettor, the compound dilution plates were mixed by pipetting up and down three times. 50 μl of mixed, diluted compound was added to each of two rows/columns on each of two cell plates. The cell plates with compound were incubated at 37° C./5% CO2 for 4 hours.
50 μl of 20 or 0 ng/ml EGF was added to the appropriate wells without the removal of compound. The compound and EGF were mixed by pipetting up and down three times.
The plates were incubated at RT for 20 min without shaking. The Fixation Solution was removed by aspiration and the plates washed four times with 200 μl each of Triton Wash Solution (1×PBS, Sigma P3813-10PK, and 0.1% Triton X-100, T8787-50ML) for 5 min with gentle shaking.
The block was removed by aspiration and 50 μl of diluted primary Ab mix was added. The plates were incubated at 4° C. overnight with gentle shaking. The plates were washed five times with 200 μl of PBST (1×PBS, Sigma P3813-10PK, and 0.1% Tween-20, Sigma P9416-50ML) for 5 min each with shaking. 50 μl of diluted secondary Ab mix was added and the plates incubated at RT for 1 h with shaking. The plates were washed 5× with 200 μl of PBST for 5 min each with shaking. One final wash with 200 μl of PBS (Sigma P3813-10PK) for 5 min with shaking was performed prior to scanning.
In some screening assays, the dilution of the secondary Ab conjugates was 1/800 rather than 1/1200.
Plate Scanning: The plates were scanned on an Odyssey Infrared Imaging System from LI-COR Biosciences. The focus offset was set at 3.5 mm and the scanning intensity set at 3 for the 700 channel and 7 for the 800 channel.
Data Analysis: The % of Maximum and % Inhibition values were calculated as follows. 700 Channel=signal for total EGFR (used to control for variation in cell number). 800 Channel=signal for phosphorylated EGFR. 800−EGF=basal level EGFR phosporylation+non-specific signal (no compound). 800+EGF=800−EGF+EGF dependent EGFR receptor phosphorylation (no compound). 700/800com=700 or 800 channel signals with compound. % Maximum={[(800com/700com)−(800−EGF/700−EGF)]/[(800+EGF/700+EGF)−(800−EGF/700−EGF)]}×100%. % Inhibition=100%−(% Maximum).

[2] = system: epithelial carcinoma A431 cell line; assay: MTT Cell Proliferation Assay, A431 cell line; type: cell-based; details: for MTT (10 Point follow-up) ratio / MTT-72 h A431/MDBK (ratio): value in brackets; for MTT (10 Point follow-up) ratio: numerically MDBK over A431; for MTT-72 h A431/MDBK (ratio): numerically MDBK value over A431 value
Excerpt: (§1) The following example describes the MTT Cell Proliferation Assay.
(§2) The MTT Cell Proliferation Assay is a colorimetric assay system that measures the reduction of the tetrazolium salt MTT (3-(4,5-dimethylthiazol-2-yl)-2,5-diphenyltetrazolium bromide) into insoluble formazan crystals, produced by the mitochondria of viable cells. […] The color can then be quantified by spectrophotometric means. Among the applications for the method are drug sensitivity, cytotoxicity, response to growth factors, and cell activation. The reduction of tetrazolium salts is now recognized as a safe, accurate alternative to radiometric testing.
(§3) Two replicates on each cell plate and 2 duplicate plates gave 4 individual replicates of each concentration, in each cell line. Concentrations were diluted in 100% DMSO from 25 mM stocks.
(§4) Twelve 96 well plates of each cell line were plated. Plating was done by dislodging cells as in passage protocol, counting on a hemocytometer, re-suspending in standard growth media, and plating using a multichannel pippetor.
(§5) 16 μl of 25 mM stock+34 μl DMSO=8 mM starting concentrations, and serial diluted as with test compounds in same plate. […] Two replicates of each concentrations was run on each cell plate. All compound addition and cell treatments were done using aseptic technique under a laminar flow aseptic hood.
(§6) Control: 0.5% DMSO in treatment media was used as the control.
(§7) MTT dye (Thiazolyl Blue Tetrazolium Bromide, Sigma cat # M5655) stock was prepared in bulk and stored at 4° C. for use: 5 mgs/ml sterile PDS, shielded from light. 4 ul of this stock per 100 uls treatment media per well was used.
(§8) Plates were incubated overnight prior to treatment, with treatment day=Day 0. Compound treatments were prepared prior to washing cells to minimize time cells were dry at room temperature after final aspiration. Compounds were diluted in 100% DMSO in 96 well polypropylene plates:40 μl 25 mM stock+10 μl DMSO=20 mM; 20 μl of 20 mM+30 μl DMSO=8 mM; 20 μl of 8 mM+30 μl DMSO=3.2 mM; 20 μl of 3.2 mM+30 μl DMSO=1.3 mM; 20 μl of 1.3 mM+30 μl DMSO=0.51 mM.
(§9) 5.0 μl/ml were added to treatment media, in sterile, 2.2 ml deep well plates=0.5% dmso final. Ten μl of each dmso concentration was added to 2.0 ml of treatment media and then mixed using a 1200 μl multichannel pipettor. Cell plates were treated from the deep well plates. Treatment media was standard growth media containing 0.5% FBS and standard additions. This reduced FBS concentration allowed for a slower growth rate in cells.
(§10) Media was aspirated from cell plates, and washed with 200 μl/well sterile PBS. Aspirated PBS wash, and cell plates were treated with 200 μl of compound/treatment media per well, and incubated at 37° C., 5% CO2 for 3 days.
(§11) Prior to harvesting, visual observations were made under an inverted microscope. Plates were harvested by: aspirating the growth media; adding back MTT dye/100 μl treatment media; and incubating plates at 37° C. for 1 hour. MTT dye was aspirated. 100 μl/well dmso was added, and then shaken on a Bellco plate shaker for 5 minutes, at 4.5 setting.
(§12) Plates were read in a Tecan Sunrize UV plate reader, at 560 nm. Settings: Read mode, Outside Normal 2 sec; Shake settle time 3 sec. Data is reported as % inhibition, calculated for individual plates using control values from that plate.

[3] = system: MDBK line; assay: MTT Cell Proliferation Assay, MDBK line; type: cell-based, bovine
Excerpt: as §1, §2, §3, §4, §5, §6, §7, §8, §9, §10, §11, §12

[4] = Homo sapiens, A-431, 10 point follow-up, first value of pair, read-out: MTT (10 Point follow-up) A431
[5] = Bos taurus, MDBK, 10 point follow-up, second value of pair, read-out: MTT (10 Point follow-up) MDBK
[6] = Homo sapiens, A-431, 72 h, 72 h, first value of A431/MDBK pair, read-out: MTT-72 h A431
[7] = Bos taurus, MDBK, 72 h, second value of A431/MDBK pair, read-out: MTT-72 h MDBK
[8] = 72 h, first value of A431/MDBK pair, read-out: MTT-72 h A431
[9] = 72 h, second value of A431/MDBK pair, read-out: MTT-72 h MDBK

T1 sequence (P00533 25-1210): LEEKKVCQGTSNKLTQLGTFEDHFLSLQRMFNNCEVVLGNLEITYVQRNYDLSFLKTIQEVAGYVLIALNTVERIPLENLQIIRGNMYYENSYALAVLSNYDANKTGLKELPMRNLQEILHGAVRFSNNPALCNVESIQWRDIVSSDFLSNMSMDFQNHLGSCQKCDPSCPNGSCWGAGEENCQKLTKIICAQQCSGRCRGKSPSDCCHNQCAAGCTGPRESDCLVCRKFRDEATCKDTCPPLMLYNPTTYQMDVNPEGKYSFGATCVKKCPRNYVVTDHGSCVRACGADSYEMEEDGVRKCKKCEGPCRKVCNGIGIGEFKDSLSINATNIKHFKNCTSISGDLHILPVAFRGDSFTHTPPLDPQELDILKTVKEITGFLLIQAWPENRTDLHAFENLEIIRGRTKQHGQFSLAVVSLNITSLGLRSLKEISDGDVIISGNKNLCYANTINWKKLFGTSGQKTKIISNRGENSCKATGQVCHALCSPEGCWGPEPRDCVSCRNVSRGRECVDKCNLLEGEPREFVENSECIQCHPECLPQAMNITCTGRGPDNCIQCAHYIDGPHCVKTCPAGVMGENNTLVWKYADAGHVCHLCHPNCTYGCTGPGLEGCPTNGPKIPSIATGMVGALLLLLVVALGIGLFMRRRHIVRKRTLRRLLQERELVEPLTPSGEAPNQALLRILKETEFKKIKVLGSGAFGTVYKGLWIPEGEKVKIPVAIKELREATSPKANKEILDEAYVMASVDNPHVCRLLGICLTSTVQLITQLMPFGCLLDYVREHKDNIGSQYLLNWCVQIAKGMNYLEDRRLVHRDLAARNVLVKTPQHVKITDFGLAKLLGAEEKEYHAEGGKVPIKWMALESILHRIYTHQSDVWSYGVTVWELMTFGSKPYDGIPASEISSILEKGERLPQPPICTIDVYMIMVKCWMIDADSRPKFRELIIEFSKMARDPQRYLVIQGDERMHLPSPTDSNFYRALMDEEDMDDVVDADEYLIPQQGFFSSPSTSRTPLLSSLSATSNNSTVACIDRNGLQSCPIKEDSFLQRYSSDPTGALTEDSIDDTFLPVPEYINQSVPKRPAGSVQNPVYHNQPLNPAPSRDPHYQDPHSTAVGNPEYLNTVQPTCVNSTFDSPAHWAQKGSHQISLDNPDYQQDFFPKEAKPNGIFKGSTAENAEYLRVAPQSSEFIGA

Row | SMILES | ICW Screen [1] | MTT (10 Point follow-up) ratio [2] | IC50 [2, 4] [µM] | IC50 [3, 5] [µM] | ICW Re-Test [1] | MTT-72 h A431/MDBK (ratio) ([2]; 72 h) | IC50 [2, 6] [µM] | IC50 [3, 7] [µM] | IC50 [2, 8] [µM] | IC50 [3, 9] [µM]
1 | Oc1c(C(Nc2ccccn2)c2ccccc2Cl)ccc2cccnc12 (stereo not drawn) [compound 10482] | 16.45 | 1.28 | 0.356 | 0.455 | – | – | – | – | – | –
2 | COc1ccc(C(Nc2ccccn2)c2ccc3cccnc3c2O)cc1OC (stereo not drawn) [compound 10518] | 39.93 | – | – | – | 51.72 | 0.83 | 6.52 | 5.43 | – | –
3 | COc1ccc(C(Nc2cc(C)ccn2)c2ccc3cccnc3c2O)cc1O (stereo not drawn) [compound 1978] | 63.53 | – | – | – | 41.95 | 1.47 | 7.3 | 10.7 | – | –
4 | CCOc1ccc(C(Nc2cccnc2)c2cc(Cl)c3cccnc3c2O)cc1 (stereo not drawn) [compound 10945] | 82.22 | 0.76 | – | – | 81.41 | 0.67 | 2.79 | 1.87 | – | –
5 | CCOc1ccc(NC(c2ccccn2)c2ccc3cccnc3c2O)cc1 (stereo not drawn) [compound 1073] | 54.34 | – | – | – | 38.77 | 1.53 | – | – | 4.83 | 7.41
6 | Cc1ccnc(NC(c2ccccn2)c2ccc3cccnc3c2O)c1 (stereo not drawn) [compound 10939] | 32.68 | – | – | – | 33.81 | 1.20 | 5.67 | 6.78 | – | –
7 | CCCOc1ccc(C(Nc2ccccn2)c2ccc3cccnc3c2O)cc1 (stereo not drawn) [compound 10028] | 30.12 | – | – | – | – | 0.95 | 5.69 | 5.38 | – | –
8 | CC(=O)Nc1ccc(NC(c2ccccn2)c2ccc3cccnc3c2O)cc1 (stereo not drawn) [compound 11017] | 25.07 | – | – | – | – | 0.83 | 11.6 | 9.66 | – | –
9 | OCCN1CCN(C(c2cccs2)c2ccc3cccnc3c2O)CC1 (stereo not drawn) [compound 10546] | 25.23 | – | – | – | – | 0.84 | 7.03 | 5.92 | – | –
10 | Cc1cccc(NC(c2cccc(Cl)c2)c2ccc3cccnc3c2O)n1 (stereo not drawn) [compound 10043] | 34.63 | 0.97 | 5.46 | 5.29 | – | – | – | – | – | –
11 | CC(C)Oc1ccc(C(Nc2ccccn2)c2ccc3cccnc3c2O)cc1 (stereo not drawn) [compound 10068] | 29.92 | – | – | – | – | 0.91 | 5.72 | 5.19 | – | –
12 | Oc1c(C(Nc2ccccc2)c2ccccn2)ccc2cccnc12 (stereo not drawn) [compound 11018] | 25.31 | – | – | – | 21.62 | 0.89 | 9.11 | 8.1 | – | –
13 | CCN1CCN(C(c2cccnc2)c2cc(Cl)c3cccnc3c2O)CC1 (stereo not drawn) [compound 10547] | 26.4 | – | – | – | – | 0.52 | 11.5 | 5.96 | – | –
14 | Cc1cccc(NC(c2ccc3c(c2)OCO3)c2ccc3cccnc3c2O)n1 (stereo not drawn) [compound 10055] | 28.09 | – | – | – | – | 0.68 | – | – | 12.1 | 8.17
15 | COc1cc(C(Nc2cc(C)ccn2)c2ccc3cccnc3c2O)ccc1O (stereo not drawn) [compound 1973] | 54.76 | – | – | – | 53.31 | 0.53 | 14.2 | 7.5 | – | –
16 | O=[N+]([O-])c1ccccc1C(Nc1ccccn1)c1ccc2cccnc2c1O (stereo not drawn) [compound 10042] | 47.99 | 0.69 | 9.62 | 6.63 | −8.06 | 1.00 | 1.49 | 1.49 | – | –
17 | CCOc1cc(C(Nc2cc(C)ccn2)c2ccc3cccnc3c2O)ccc1OC (stereo not drawn) [compound 1991] | 47.06 | – | – | – | 30.75 | 0.79 | 9.08 | 7.14 | – | –
